From ChEMBL document CHEMBL1201862, “PubChem BioAssay data set” (2004)
Calls of active or inactive are those of the source.

How the values were obtained:
[1] = target: Nuclear receptor subfamily 0 group B member 1 (Homo sapiens, UniProt P51843); assay: Luminescence-based cell-based high throughput dose response assay for inhibitors of the orphan nuclear receptor subfamily 0, group B, member 1 (DAX1; NR0B1). [Related pubchem assays (depositor defined):AID504766, AID504790]; assay type: functional
HEK293 = assay: cells; assay type: functional, cell-based; conditions: Homo sapiens
[2] = target: T1, Apoptotic protease-activating factor 1 (Homo sapiens, UniProt O14727); assay: activation of Apaf-1 mediated apoptosis – fluorescent, uHTS hits, dose response (AID 588554); assay type: functional
T1 sequence (O14727 whole entry): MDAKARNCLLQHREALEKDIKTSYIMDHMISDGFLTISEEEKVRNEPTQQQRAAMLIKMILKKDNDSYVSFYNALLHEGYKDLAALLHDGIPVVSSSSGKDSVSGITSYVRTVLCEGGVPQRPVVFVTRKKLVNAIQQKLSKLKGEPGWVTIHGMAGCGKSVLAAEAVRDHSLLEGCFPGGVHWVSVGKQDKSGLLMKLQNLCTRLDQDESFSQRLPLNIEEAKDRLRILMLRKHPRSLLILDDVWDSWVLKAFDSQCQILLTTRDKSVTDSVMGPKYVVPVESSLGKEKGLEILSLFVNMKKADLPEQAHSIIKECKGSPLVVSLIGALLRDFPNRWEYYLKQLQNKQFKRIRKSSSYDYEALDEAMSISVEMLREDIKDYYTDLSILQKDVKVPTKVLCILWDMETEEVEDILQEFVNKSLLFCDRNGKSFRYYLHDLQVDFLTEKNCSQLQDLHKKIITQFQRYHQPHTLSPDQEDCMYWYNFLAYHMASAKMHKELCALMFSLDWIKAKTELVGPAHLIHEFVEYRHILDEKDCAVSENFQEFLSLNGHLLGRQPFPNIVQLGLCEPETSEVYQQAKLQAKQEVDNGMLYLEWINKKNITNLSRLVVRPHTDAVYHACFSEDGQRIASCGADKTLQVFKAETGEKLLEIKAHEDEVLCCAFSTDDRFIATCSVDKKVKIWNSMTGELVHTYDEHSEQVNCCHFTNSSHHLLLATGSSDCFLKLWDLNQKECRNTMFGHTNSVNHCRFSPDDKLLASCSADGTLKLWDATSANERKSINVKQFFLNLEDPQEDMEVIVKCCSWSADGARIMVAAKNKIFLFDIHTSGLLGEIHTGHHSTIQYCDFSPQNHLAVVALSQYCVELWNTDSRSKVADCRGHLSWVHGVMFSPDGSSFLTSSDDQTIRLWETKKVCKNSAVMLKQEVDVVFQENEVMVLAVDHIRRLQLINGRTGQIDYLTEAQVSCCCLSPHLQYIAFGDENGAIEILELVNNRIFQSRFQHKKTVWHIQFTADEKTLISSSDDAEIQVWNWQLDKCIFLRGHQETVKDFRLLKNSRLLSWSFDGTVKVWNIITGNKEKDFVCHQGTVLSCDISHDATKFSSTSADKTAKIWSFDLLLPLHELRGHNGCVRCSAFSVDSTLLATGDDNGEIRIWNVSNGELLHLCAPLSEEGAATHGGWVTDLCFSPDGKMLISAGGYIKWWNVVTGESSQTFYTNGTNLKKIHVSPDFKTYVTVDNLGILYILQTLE

[3] = target: T2, Voltage-gated N-type calcium channel alpha-1B subunit/Amyloid beta A4 precursor protein-binding family A member 1 (Homo sapiens, UniProt Q00975+Q02410); assay type: protein assay
[4] = target: T2, Voltage-gated N-type calcium channel alpha-1B subunit/Amyloid beta A4 precursor protein-binding family A member 1; assay type: protein assay; remark: listed apart in the source
CAAX prenyl protease 2 = CAAX prenyl protease 2 (Homo sapiens, UniProt Q9Y256); assay: human Rce1 protease inhibitors, dose response, biochemical, yeast membranes, quenched-peptide fluorescence, cherry-pick (AID 588849)
[5] = Luminescence Cell-Based Dose Confirmation HTS to Identify Activators of 5'UTR Stem-Loop Driven Alpha-Synuclein mRNA Translation in H4 Neuroglioblastoma Cells. [Related pubchem assays: 1829 (Project Summary), 1814 (Primary HTS)]; assay type: functional
HeLa = assay: HeLa cell cytotoxicity, dose response, cytotoxicity control for MITF activator project, CellTiter-Glo luminescence, cherry-pick samples (AID 540259); assay type: functional, cell-based; conditions: Homo sapiens
H4 = assay: Luminescence Cell-Based Dose Response HTS to Identify Activators of 5'UTR Stem-Loop Driven Prion Protein mRNA Translation in H4 Neuroglioblastoma Cells. [Related pubchem assays: 1829 (Project Summary), 1814 (Primary HTS)]; assay type: functional; conditions: Homo sapiens
[6] = Luminescence Cell-Based Dose Response HTS to Identify Activators of Luciferase Translation or Activity in H4 […] Cells. [Related pubchem assays: 1829 (Project Summary), 1814 (Primary HTS)]; assay type: functional
INS1 [7] = assay: protection from cytokine-induced mitochondrial depolarization, dose response, cell-based, INS-1E, JC-1 fluorescence ratio, dry powder (AID 488931); assay type: functional; conditions: Rattus norvegicus
INS1 [8] = assay: protection of INS-1E cells from cytokine death, dose response, ATP luminescence, dry powder (AID 488844); assay type: functional, cell-based; conditions: Rattus norvegicus
INS1 [9] = assay: caspase-3/7 inhibition in cytokine-treated INS-1E, dose response, beta-cell apoptosis inhibitor project, cell-based, caspase luminescence, dry powder (AID 488848); assay type: functional; conditions: Rattus norvegicus
[10] = Luminescence Cell-Based Dose Retest to Confirm Inhibitors of Cancer Stem Cells. [Related pubchem assays (depositor defined):AID2717, AID2721]; assay type: functional; conditions: Homo sapiens
INS1 [11] = assay: beta cell apoptosis inhibitors, cytokine rescue, dose response, luminescence, retest (AID 449756); assay type: functional, cell-based; conditions: Rattus norvegicus;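 further: cell death triggered by IL-1 beta plus TNF-alpha plus IFN-gamma mixture; protective hits raise ATP signal compared with cytokine alone wells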
[12] = cytotoxicity in HMLE control line with eGFP shRNA, dose response, counter-screen for HMLE_sh_ECad selective toxicity project, cell-based, HMLE_sh_eGFP, luminescence (AID 463074); assay type: functional, Homo sapiens;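 further: HMLE human mammary epithelial cells expressing control shRNA against eGFP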
[13] = target: Beta-adrenergic receptor kinase 1 (Homo sapiens, UniProt P25098); assay: aptamer displacement from bead-bound GRK2 – biochemical, cherry pick 1, bead flow cytometry, dose response (AID 504500)
[14] = target: Heat shock protein HSP 90-alpha (Homo sapiens, UniProt P07900); assay type: functional, organism-based
[15] = target: ATP-binding cassette sub-family B member 6 (Homo sapiens, UniProt Q9NP58); assay: ABCB6 transporter inhibitors, dose response, K562-ABCB6 cells, flow cytometry, cherry pick 1 (AID 623955); assay type: functional; conditions: read-out: EC50_MICROM
[16] = Shn3 3'UTR reporter inhibitors, dose response, cell-based, Clone20 osteoblasts, firefly luciferase, cherry-picked (AID 624132); assay type: functional;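 further: firefly luciferase luminescence from reporter carrying the Shn3 3'UTR in osteoblasts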
[17] = target: T3, Replicative DNA helicase DnaB (Mycobacterium tuberculosis, UniProt P9WMR3); assay: DnaB intein splicing inhibitors, dose response, biochemical, cell-free fluorescence (AID 449749); assay type: functional
T3 sequence (P9WMR3 whole entry): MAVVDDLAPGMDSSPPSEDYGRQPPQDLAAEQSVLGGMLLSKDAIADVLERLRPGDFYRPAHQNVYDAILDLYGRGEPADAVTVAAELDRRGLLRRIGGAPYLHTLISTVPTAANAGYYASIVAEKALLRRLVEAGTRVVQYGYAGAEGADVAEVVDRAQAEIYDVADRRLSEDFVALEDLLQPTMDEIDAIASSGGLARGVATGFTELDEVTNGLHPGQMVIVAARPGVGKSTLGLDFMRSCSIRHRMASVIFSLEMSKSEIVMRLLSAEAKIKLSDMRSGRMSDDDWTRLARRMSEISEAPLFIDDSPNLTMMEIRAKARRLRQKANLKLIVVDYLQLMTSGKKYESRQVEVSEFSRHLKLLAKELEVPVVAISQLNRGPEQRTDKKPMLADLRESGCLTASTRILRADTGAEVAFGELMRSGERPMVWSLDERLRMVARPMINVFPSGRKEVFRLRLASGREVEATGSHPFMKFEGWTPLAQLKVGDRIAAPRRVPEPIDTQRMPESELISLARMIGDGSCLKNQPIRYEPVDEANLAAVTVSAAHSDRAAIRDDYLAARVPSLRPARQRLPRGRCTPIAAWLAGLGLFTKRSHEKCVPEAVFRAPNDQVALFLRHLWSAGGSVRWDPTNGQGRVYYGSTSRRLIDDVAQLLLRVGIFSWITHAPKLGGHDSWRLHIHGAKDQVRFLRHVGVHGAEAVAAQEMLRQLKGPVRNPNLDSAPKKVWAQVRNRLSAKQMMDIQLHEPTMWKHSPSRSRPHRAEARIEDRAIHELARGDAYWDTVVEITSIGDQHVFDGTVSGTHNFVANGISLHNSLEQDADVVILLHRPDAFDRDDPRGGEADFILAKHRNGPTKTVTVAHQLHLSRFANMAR

Protein RecA = target: T4, Protein RecA (Mycobacterium tuberculosis, UniProt P9WHJ3); assay: Fluorescence Cell-Free Homogeneous Dose Retest to Identify Inhibitors of RecA-Intein Splicing Activity. [Related pubchem assays (depositor defined):AID2097, AID2223, AID489010, AID492950]; assay type: functional
T4 sequence (P9WHJ3 whole entry): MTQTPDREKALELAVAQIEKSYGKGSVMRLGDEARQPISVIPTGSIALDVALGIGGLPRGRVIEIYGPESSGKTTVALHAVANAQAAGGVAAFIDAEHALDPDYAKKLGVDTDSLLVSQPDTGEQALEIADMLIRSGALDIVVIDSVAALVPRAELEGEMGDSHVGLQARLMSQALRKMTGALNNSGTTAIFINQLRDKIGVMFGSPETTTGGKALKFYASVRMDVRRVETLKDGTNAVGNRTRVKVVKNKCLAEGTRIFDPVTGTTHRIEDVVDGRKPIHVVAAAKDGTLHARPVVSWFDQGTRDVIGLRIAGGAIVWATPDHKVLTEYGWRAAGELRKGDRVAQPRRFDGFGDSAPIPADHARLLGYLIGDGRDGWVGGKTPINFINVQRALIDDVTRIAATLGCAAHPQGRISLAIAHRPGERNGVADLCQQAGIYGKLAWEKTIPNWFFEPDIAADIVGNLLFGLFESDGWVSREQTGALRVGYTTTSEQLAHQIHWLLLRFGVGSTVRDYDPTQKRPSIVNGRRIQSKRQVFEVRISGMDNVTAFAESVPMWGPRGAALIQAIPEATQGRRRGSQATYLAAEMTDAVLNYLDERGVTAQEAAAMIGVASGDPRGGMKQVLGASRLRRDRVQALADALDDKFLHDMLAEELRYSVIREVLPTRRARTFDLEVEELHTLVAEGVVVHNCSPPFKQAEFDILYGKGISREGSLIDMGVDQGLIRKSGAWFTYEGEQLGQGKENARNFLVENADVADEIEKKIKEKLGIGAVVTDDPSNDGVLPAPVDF

[18] = HepG2 cell cytotoxicity, dose response, cytotoxicity control for Shn3 inhibitor project, CellTiter-Glo, cherry-picked (AID 624134); assay type: functional, cell-based
CHO = assay: cytotoxicity in TLR9-MyD88 CHO cells, dose response, cytotoxicity control for TLR9-MyD88 binding inhibitor project, cell-based, luminescence (AID 588339); assay type: functional, hamster; conditions: Cricetulus griseus;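 further: CHO cells stably coexpressing TLR9 and MyD88 fusions from primary screen; compound exposure lasted 48 hours before viability readout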
Beta Lactamase = Beta Lactamase (Pseudomonas aeruginosa, UniProt Q932Y6); assay: beta-lactamase reporter inhibitor potency, dose response, artefact control for TLR9-MyD88 binding inhibitor project, BLA reporter cells, FRET fluorescence (AID 588341); assay type: cell-based;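 further: cell based assay in CHO-K1 cells stably expressing beta-lactamase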
[19] = control 3'UTR Renilla luciferase suppression, dose response, counter-screen for Shn3 inhibitor project, cell-based, Clone20-Shn3RL, cherry-picked (AID 624133); assay type: functional
[20] = target: NACHT, LRR and PYD domains-containing protein 3 (Homo sapiens, UniProt Q96P20); assay: NALP3 inhibitors in yeast, dose response, luminescent (AID 488799); assay type: functional
Sequence of NACHT, LRR and PYD domains-containing protein 3 (Q96P20 whole entry, the tested form may be a part): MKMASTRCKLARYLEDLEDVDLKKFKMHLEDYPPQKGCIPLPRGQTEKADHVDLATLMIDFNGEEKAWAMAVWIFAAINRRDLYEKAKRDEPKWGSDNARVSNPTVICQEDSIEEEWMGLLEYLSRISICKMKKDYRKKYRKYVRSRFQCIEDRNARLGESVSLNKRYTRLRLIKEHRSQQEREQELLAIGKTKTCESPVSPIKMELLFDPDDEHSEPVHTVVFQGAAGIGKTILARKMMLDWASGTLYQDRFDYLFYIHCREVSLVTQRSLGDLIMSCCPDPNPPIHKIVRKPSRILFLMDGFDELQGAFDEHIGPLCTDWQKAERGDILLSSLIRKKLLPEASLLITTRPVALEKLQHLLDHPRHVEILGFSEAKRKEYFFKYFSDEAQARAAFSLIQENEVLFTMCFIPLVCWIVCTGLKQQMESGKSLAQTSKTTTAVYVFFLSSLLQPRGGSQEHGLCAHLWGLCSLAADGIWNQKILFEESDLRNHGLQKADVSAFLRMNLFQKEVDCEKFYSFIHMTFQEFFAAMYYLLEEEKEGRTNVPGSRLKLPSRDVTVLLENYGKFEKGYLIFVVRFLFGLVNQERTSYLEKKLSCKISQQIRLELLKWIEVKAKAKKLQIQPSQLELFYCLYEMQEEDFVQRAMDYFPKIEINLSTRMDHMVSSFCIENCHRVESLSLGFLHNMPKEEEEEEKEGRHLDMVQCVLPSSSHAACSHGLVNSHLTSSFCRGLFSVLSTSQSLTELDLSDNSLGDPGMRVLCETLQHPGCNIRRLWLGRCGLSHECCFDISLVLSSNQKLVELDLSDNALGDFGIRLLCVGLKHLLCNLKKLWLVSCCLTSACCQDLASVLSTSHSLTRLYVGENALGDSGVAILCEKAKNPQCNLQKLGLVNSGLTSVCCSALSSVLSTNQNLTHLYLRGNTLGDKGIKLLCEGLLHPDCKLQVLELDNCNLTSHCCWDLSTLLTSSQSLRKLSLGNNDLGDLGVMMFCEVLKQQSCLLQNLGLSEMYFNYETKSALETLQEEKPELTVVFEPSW

T2 sequence (Q00975 whole entry): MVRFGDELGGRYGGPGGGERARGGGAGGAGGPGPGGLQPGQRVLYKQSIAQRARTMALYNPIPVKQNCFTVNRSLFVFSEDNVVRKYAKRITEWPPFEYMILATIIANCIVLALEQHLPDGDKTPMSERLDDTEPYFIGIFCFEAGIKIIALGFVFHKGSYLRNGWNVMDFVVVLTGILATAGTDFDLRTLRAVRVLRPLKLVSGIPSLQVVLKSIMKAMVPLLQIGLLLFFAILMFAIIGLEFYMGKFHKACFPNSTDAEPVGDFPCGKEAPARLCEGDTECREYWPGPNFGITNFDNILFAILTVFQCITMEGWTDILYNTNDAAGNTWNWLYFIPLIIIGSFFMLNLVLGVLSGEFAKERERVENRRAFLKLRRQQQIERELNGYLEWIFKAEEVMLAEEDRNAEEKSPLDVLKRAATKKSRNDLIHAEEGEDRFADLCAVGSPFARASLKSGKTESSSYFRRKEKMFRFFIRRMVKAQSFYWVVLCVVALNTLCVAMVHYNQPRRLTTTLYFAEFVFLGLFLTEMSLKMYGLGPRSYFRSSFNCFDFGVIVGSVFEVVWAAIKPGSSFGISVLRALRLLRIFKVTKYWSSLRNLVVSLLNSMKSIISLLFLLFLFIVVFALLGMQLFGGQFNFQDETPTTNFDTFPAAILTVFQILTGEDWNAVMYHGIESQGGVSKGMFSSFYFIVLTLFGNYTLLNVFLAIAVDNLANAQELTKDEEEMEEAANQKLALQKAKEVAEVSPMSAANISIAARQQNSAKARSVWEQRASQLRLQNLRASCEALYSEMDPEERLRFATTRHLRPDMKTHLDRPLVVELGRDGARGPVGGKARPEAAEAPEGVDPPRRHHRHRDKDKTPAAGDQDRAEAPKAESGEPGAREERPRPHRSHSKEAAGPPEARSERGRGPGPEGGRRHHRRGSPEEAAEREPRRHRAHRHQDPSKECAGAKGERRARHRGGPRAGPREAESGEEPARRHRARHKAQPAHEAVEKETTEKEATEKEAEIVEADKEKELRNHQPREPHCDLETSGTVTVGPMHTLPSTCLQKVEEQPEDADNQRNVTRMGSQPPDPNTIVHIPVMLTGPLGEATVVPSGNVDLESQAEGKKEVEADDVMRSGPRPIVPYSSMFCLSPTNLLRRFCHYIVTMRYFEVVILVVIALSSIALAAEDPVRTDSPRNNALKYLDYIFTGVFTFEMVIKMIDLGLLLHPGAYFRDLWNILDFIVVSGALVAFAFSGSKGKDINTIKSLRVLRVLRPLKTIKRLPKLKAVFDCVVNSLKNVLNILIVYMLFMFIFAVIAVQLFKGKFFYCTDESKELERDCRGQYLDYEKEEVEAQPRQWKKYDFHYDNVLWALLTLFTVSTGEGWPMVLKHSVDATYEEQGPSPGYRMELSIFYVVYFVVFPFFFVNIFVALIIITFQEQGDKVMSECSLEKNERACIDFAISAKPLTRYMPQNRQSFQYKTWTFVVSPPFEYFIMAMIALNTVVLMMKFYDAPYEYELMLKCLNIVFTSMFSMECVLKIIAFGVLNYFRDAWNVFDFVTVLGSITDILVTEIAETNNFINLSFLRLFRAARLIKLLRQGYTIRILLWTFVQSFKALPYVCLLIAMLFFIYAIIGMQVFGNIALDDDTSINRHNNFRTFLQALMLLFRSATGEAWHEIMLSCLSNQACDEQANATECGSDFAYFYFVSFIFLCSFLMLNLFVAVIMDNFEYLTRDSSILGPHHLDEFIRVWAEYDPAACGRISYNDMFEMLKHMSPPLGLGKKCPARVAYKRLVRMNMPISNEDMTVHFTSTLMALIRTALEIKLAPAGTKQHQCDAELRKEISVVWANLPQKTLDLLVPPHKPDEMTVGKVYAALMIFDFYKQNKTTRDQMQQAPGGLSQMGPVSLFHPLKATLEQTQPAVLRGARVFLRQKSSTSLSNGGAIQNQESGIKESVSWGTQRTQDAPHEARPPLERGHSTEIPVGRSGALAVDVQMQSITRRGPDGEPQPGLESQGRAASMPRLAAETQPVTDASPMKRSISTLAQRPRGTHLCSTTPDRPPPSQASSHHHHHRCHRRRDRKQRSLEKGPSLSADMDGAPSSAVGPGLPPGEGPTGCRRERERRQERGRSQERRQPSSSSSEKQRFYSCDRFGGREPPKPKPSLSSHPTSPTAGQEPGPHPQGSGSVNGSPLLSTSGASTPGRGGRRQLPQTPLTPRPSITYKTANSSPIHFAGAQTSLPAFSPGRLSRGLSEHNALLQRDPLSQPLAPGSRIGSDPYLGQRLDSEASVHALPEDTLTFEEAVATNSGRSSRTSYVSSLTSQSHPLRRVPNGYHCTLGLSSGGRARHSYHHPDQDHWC
T2 sequence (Q02410 whole entry): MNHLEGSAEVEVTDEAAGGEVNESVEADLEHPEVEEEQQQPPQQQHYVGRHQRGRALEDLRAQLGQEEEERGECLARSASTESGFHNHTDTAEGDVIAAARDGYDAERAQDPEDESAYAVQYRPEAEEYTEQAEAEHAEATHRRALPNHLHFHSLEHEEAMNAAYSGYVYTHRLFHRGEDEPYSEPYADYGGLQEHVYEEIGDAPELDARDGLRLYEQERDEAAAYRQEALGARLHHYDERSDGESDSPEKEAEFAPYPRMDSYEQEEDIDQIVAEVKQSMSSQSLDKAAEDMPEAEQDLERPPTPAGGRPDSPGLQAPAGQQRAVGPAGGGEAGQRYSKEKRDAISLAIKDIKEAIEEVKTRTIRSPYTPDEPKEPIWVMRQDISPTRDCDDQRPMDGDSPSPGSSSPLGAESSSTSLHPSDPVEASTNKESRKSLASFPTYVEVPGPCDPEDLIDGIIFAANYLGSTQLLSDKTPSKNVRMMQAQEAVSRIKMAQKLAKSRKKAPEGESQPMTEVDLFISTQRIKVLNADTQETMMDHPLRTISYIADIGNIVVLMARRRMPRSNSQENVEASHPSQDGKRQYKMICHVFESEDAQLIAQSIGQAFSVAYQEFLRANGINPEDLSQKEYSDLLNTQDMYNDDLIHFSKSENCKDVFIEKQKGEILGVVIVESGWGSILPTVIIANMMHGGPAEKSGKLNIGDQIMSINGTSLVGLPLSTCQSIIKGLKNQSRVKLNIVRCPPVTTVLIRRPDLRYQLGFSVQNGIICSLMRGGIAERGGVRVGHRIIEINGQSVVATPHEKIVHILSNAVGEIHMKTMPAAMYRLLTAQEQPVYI
Sequence of CAAX prenyl protease 2 (Q9Y256 whole entry): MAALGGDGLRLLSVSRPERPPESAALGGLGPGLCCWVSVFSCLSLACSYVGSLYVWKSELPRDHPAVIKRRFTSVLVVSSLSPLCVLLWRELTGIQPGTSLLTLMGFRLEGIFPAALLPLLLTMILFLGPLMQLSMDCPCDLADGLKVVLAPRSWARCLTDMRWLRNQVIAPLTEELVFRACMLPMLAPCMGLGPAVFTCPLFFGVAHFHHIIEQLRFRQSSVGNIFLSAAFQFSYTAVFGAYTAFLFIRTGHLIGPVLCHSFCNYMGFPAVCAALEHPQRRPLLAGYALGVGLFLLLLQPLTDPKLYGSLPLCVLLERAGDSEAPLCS
Sequence of Nuclear receptor subfamily 0 group B member 1 (P51843 whole entry): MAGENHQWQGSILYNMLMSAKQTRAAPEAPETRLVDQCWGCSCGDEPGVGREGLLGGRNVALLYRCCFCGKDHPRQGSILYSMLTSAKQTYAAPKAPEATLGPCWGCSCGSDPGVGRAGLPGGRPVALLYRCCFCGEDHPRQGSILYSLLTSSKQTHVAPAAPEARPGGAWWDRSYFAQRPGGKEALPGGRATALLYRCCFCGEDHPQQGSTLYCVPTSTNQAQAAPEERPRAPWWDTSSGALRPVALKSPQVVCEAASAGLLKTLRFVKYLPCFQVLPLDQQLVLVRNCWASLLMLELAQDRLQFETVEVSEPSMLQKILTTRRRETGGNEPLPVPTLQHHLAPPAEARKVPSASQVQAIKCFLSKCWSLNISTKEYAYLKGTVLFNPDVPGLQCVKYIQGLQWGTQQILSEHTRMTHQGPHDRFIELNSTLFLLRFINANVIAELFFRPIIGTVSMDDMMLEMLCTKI

CCOc1ccc2nc(NS(=O)(=O)Cc3ccccc3)sc2c1
IC50 [1]: > 67.5 µM (inactive)
IC50 (HEK293): > 67.5 µM (inactive)

O=C(CCS(=O)(=O)c1ccc(Br)cc1)NCc1ccco1
EC50 [2]: 23.4 µM (active)
IC50 [3]: > 50 µM (inactive)
IC50 [4]: 12.1 µM (active)

COc1cccc(/C=C/C(=O)OCC(=O)Nc2ccc(Cl)c(S(=O)(=O)N(C)C)c2)c1OC
AC50 (CAAX prenyl protease 2): 20.9 µM (active)

COc1ccc(/C(O)=C/C=N/c2cccc(C)n2)cc1OC
EC50 [5]: 0.146 µM (active)
AC50 (HeLa): 50.8 µM (active)
EC50 (H4): 48.3 µM (active)
EC50 [6]: 0.122 µM (active)

C[C@@H]1CN([C@@H](C)CO)C(=O)c2cccc(NC(=O)Nc3ccc(F)cc3)c2O[C@H]1CN(C)S(=O)(=O)c1ccc(F)cc1
AC50 (INS1 [7]): 63.3 µM (active)
AC50 (INS1 [8]): 72 µM (active)
AC50 (INS1 [9]): > 195 µM (inactive)

C=CC[n+]1c(-c2ccc(OCC)cc2)csc1NNC(=O)Nc1ccccc1
AC50 [10]: 88.4 µM (active)
AC50 (INS1 [11]): 6.63 µM (active)
AC50 [12]: 24.7 µM (active)

CCCC[N+](C)(C)CCC(=O)NC(C)(C)CS(=O)(=O)[O-]
EC50 [13]: 4.53 µM (active)

Cc1ccc(NC(=O)c2nc(S(=O)(=O)Cc3ccccc3)ncc2Cl)cc1
AC50 [14]: 3.21 µM (active)
AC50 [10]: 2.57 µM (active)
EC50 [15]: 34.7 µM (active)
AC50 (INS1 [11]): 9.27 µM (active)
AC50 [16]: 3.42 µM (active)
AC50 [17]: 23 µM (active)
EC50 (Protein RecA): 0.88 µM (active)
AC50 [18]: 24.6 µM (active)
IC50 (CHO): 3.31 µM (active)
IC50 (Beta Lactamase): 8.3 µM (active)
AC50 [19]: 6.01 µM (active)
IC50 [20]: 3.58 µM (active)
